Results: US7265150B1, “Carboxylic acids and carboxylic acid isosteres of N-heterocyclic compounds for vision and memory disorders” (GPI NIL Holdings Inc., priority 1998, dated 2007)
Like-named read-outs stand apart in the source and are kept apart here.

Columns and labels:
[1] = Clearance (Table V, Comments); assay type: in vitro ADME
aged C57BL/6N-Nia mice = assay: Morris watermaze, spatial learning and memory in aged rodents (Example 19); assay type: in vivo, mouse; settings: 10 mg/kg daily; retention testing after 3 weeks of dosing
Source text: The Morris watermaze is widely used for assessing spatial memory formation and retention in experimental animals. The test depends on the animal's ability to utilize spatial visual information in order to locate a submerged escape platform in a water tank. It is important that the tank itself be as devoid of specific visual features as possible-thus, it is always circular in shape, the sides are kept smooth and in uniform dull colors and the water is rendered opaque with nontoxic watercolor pigment or powdered milk. This is to ensure that the animal navigates only by the use of more distant visual cues, or by the use of intra-maze cues specifically provided by the experimenter. The tank is filled to a level which forces the animal to swim actively. Normal mice and rats react […] to the swimming part of the test and will climb onto, and remain on, an escape platform from which they are removed to a heated resting cage. If the platform is visible (i.e. above the surface), animals placed in the tank will quickly learn to home in on the platform and climb out onto it. […] Swim Distances (cm) were analyzed in a 7×5 ANOVA including Groups and Blocks (1-5) as factors in the analysis, treating Blocks as a repeated measure.

[2] = tested on: retinal ganglion cells, optic nerve axons and myelin; assay: Retinal ischemia (FIG. 1, FIG. 2); assay type: in vivo, rat; settings: 10 mg/kg s.c. 1 hour prior to ischemia and 10 mg/kg/day for next four days; 28 days after ischemia
Source text: Retinal ganglion cells were retrogradely labeled in adult rats by bilateral injection of fluorogold in their lateral geniculate nuclei. Labeled ganglion cells in the normal rat retina appear as white profiles against the dark background (FIG. 1A). Complete retinal ischemia was produced by infusing normal saline solution into the retinal vitreous cavity of each eye until the intraocular pressure exceeded arterial blood pressure. 28 days after the ischemic episode extensive degeneration of retinal ganglion cell was evidenced by massive reduction in the density of fluorogold labeled cells (FIG. 1B).

[3] = tested on: retinal ganglion cells and optic nerve axons; assay: Optic nerve transection, 14 or 28 day treatment, evaluated 90 days after transection (Example 6, Table I); assay type: in vivo, rat; settings: 90 days after ONT
Source text: All eyes and optic nerves stumps were removed.

Structure (SMILES): CN(C)C(=O)N1CCC[C@H]1C(=O)SCCCc1ccccc1 [N]
- Clearance ([1]; unit printed as μl/ml): 21.9

Structure (SMILES): CCC(C)(C)C(=O)C(=O)N1CCC[C@H]1C(=O)OCCCc1cccnc1 [GPI 1046]
- spatial memory performance (swim distance), retention testing, aged impaired mice vs vehicle (aged C57BL/6N-Nia mice): significantly enhanced spatial memory performance
- protection of retinal ganglion cells after retinal ischemia (fluorogold labeled cells) [2]: noticeable protection of a large proportion of the vulnerable ganglion cell population
- Distal optic nerve myelin basic protein Density: shrinkage of cross sectional area ([3]; GPI 1046 14 days, compared to sham control): did not protect against shrinkage of the distal stump
- Distal optic nerve myelin basic protein Density: myelin loss ([3]; GPI 1046 14 days, cross sectional area multiplied by myelin density): slightly increase the density of myelin
- Distal optic nerve myelin basic protein Density: less shrinkage of cross sectional area ([3]; GPI 1046 28 days): prevented cross sectional shrinkage
- Clearance [1]: 63.5 µL/min
